Measured values published in ChEMBL document CHEMBL5726255, “Biaryl acyl-sulfonamide compounds as sodium channel inhibitors” (2017).

Target: Sodium channel protein type 5 subunit alpha (Homo sapiens, UniProt Q14524)
Experiment: Nav 1.5 In Vitro PX Assay: 293 cells stably transfected with human Nav 1.5 were recorded in whole cell voltage clamp mode with the PatchXpress automated electrophysiology system according the manufacturer's specifications (Molecular Devices, LLC, Sunnyvale, Calif.). Cells were held at a holding potential of −50 mV to inactivate sodium channels. To elicit sodium currents the voltage was changed to …
Description: Nav 1.5 In Vitro PX Assay: 293 cells stably transfected with human Nav 1.5 were recorded in whole cell voltage clamp mode with the PatchXpress automated electrophysiology system according the manufacturer's specifications (Molecular Devices, LLC, Sunnyvale, Calif.). Cells were held at a holding potential of −50 mV to inactivate sodium channels. To elicit sodium currents the voltage was changed to −120 mV to recover a portion of the channels, followed by delivery of test pulses of 20 msec duration to 0 mV, at 0.1 Hz. A single concentration of test compound was applied to cells for a duration of 5 minutes. Peak sodium current was measured at the end of the compound addition period to determine percent inhibition. A minimum of two cells were tested per concentration.

Sodium channel protein type 5 subunit alpha, sequence (Q14524 whole entry): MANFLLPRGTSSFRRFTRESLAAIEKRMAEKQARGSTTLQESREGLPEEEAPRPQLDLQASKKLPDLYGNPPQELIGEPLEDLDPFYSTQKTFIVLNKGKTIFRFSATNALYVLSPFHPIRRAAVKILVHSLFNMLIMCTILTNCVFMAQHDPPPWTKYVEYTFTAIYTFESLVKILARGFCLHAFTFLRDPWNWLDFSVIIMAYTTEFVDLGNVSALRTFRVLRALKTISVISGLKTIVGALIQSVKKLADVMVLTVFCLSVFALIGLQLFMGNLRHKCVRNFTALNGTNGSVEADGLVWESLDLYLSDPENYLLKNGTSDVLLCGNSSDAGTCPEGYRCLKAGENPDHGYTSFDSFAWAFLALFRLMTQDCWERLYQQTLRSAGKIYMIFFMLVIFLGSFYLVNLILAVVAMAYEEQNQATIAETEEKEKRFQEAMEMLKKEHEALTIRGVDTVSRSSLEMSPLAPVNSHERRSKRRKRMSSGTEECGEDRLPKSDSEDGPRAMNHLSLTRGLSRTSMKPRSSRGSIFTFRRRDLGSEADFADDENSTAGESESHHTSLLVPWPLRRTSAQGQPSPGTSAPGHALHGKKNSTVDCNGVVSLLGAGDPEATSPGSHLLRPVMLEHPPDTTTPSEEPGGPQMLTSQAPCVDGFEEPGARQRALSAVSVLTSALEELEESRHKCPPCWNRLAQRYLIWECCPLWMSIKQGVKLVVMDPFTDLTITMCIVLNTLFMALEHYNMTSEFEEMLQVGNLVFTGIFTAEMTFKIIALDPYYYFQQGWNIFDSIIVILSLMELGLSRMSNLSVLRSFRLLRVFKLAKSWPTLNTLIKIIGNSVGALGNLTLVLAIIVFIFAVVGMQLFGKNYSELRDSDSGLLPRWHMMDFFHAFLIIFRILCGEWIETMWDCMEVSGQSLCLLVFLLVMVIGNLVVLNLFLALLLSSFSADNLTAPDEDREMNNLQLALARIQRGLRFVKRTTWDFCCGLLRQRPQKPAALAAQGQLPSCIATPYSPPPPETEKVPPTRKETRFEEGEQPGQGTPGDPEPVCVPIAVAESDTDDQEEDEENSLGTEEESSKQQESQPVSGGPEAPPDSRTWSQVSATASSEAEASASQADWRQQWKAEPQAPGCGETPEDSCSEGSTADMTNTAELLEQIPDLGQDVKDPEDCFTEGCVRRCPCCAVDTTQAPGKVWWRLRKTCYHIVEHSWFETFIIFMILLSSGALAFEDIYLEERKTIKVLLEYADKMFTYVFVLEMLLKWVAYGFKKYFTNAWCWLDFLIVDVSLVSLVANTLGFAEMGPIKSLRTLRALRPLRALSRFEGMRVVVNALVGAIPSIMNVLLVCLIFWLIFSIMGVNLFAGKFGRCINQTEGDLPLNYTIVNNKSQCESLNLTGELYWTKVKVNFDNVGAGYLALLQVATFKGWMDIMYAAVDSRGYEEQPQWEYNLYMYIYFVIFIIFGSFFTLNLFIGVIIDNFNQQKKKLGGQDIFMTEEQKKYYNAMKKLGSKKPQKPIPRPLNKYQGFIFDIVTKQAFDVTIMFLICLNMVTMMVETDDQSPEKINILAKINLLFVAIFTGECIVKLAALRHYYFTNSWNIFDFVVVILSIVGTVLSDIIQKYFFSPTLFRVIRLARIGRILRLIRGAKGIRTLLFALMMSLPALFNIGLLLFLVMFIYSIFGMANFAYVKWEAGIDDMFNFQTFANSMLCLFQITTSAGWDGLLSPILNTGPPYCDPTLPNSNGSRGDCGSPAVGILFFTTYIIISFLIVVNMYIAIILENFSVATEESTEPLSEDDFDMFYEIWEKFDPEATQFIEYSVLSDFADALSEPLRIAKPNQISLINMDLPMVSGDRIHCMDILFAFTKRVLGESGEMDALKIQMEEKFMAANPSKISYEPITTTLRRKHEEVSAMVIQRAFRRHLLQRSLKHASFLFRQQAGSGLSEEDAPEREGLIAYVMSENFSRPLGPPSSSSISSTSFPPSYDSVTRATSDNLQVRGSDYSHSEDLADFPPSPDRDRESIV

SMILES	IC50
Cc1cc(C(=O)NS(=O)(=O)C2CCC2)c(F)cc1-c1cnc(OC2CCC2)c(Cl)c1	> 4900 nM

Target: Sodium channel protein type 9 subunit alpha (Homo sapiens, UniProt Q15858)
Experiment: Nav 1.7 In Vitro Patch Express (PX) Assay: HEK 293 cells stably transfected with human Nav1.7 were recorded in whole cell voltage clamp mode with the PatchXpress automated electrophysiology system (Molecular Devices, LLC, Sunnyvale, Calif.). Compound effects were measured on a partially inactivated state of the sodium channel. Cells were clamped to a holding potential yielding 20 to 50% inactivation. To elicit sodium current, channels were activated by pulsing to −10 mV for 20 msec. This voltage protocol was repeated at a rate of 0.1 Hz throughout the experiment. A single concentration of test compound was applied to cells for a duration of 3 minutes. Peak sodium current was measured at the end of the compound addition period to determine percent inhibition. Three to five cells were tested per concentration, and IC50 curves were fitted to percent inhibition as a function of concentration.

Sodium channel protein type 9 subunit alpha, sequence (Q15858 whole entry): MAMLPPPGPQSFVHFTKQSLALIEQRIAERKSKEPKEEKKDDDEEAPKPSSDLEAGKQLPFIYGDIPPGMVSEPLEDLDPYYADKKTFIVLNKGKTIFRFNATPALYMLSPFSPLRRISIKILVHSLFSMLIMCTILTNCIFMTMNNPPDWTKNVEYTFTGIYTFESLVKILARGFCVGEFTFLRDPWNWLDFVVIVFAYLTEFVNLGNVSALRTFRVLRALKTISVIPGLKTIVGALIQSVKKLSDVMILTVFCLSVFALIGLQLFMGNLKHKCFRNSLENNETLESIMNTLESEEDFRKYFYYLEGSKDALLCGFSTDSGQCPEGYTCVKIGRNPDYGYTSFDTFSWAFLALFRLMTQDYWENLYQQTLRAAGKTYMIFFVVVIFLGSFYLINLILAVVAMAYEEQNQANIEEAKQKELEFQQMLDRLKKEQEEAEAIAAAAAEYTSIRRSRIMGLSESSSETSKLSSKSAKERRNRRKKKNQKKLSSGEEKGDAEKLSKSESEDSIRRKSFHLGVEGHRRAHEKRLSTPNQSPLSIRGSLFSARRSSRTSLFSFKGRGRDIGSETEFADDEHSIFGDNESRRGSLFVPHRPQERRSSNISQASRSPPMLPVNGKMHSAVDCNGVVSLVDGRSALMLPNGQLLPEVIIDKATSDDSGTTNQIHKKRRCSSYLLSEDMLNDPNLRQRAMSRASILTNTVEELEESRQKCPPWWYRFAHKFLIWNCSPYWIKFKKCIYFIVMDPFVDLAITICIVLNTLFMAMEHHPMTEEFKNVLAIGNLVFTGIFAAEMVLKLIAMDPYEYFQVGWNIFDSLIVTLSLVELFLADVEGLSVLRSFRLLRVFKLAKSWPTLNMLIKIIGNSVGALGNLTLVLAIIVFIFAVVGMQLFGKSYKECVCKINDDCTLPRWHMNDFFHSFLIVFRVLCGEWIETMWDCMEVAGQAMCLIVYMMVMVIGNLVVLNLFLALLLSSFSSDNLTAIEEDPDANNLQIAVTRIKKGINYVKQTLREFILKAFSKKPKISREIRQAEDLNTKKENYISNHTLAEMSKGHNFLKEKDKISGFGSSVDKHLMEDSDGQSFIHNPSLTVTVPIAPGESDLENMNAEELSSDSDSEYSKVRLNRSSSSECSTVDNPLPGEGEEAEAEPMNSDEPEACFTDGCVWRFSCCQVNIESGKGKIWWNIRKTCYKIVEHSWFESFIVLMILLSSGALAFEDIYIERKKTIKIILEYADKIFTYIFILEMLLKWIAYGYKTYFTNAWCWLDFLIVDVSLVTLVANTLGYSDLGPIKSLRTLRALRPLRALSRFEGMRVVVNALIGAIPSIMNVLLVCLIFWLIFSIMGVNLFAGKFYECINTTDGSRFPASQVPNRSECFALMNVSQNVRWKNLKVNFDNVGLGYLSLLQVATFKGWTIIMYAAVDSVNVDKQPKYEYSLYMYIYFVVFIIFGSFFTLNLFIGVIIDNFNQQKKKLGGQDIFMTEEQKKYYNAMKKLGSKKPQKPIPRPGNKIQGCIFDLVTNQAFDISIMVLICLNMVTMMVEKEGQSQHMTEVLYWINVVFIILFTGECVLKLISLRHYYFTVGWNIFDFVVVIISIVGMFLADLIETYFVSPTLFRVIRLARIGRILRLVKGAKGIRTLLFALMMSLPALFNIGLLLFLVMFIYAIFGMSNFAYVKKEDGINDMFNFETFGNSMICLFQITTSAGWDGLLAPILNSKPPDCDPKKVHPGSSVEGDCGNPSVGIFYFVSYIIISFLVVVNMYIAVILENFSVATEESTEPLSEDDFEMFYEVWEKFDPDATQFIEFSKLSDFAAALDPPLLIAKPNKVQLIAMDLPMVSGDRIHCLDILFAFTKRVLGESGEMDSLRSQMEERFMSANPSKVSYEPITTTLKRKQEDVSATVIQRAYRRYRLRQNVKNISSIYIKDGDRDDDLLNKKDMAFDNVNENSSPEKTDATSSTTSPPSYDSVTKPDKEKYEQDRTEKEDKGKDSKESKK

SMILES	IC50
COc1cc(C(=O)NS(C)(=O)=O)ccc1-c1cnc(Oc2c(Cl)ccc(Cl)c2C)c(C#N)c1	17.2 nM
Cc1cc(C(=O)NS(=O)(=O)C2CCC2)c(F)cc1-c1cnc(OC2CCC2)c(Cl)c1	73.9 nM
CC(C)COc1ncc(-c2cc(F)c(C(=O)NS(C)(=O)=O)cc2F)cc1Br	559 nM

Continued, values first:

IC50	SMILES
46.2 nM	Cc1cc(C(=O)NS(C)(=O)=O)c(F)cc1-c1cnc(O[C@H](C)c2cc(Cl)ccc2Cl)c(Cl)c1
96.5 nM	CS(=O)(=O)NC(=O)c1cc(F)c(-c2cnc(Oc3ccc(F)c4c3CCC4)c(Cl)c2)cc1F
